In patent US20160168147A1, “ISOTOPICALLY ENRICHED AZAINDOLES” (Vertex Pharmaceuticals Incorporated, priority 2013, published 2016) one finds new metabolites observed data, which are given here for 1 compound.

The subject of the series is Cryopreserved Human Hepatocytes. Description: Assessment of metabolite profile and kinetic isotope effect in human hepatocytes (Example 6). The series is classed as in vitro ADME. The following applies: 3 μM and 10 μM, sampled at 120 minutes, LC-MS MRM. The procedure: Cryopreserved Human Hepatocytes lot TFF (purchased from Celsis) were used. Hepatocytes were thawed using CHRM and suspended in Williams E media containing cell maintenance supplement package. 1000 μL of a final cell concentration 1 million cells/mL were placed in individual incubation wells (24-well plate set-up). Incubation was conducted at 37° C. and kept in a CO2/O2 humidified incubator. 10 μL of compound stock was spiked into cell the matrix to achieve final incubation concentrations of 3 μM and 10 μM. The matrix was swirled prior to the removal of each time-point and 50 μL of sample were removed and added to 200 μL of acetonitrile containing internal standard, IS. Time-points were sampled at 120 minutes using MRM on an ABSciex API5500-QTrap paired with an Agilent 1290 UPLC and a CTC PAL autosampler. A 20-minute gradient method using a HALO C18 2.1×50 mm 2.7 μm column made by Advanced Materials Technology was used for the analysis. /

With `[2H]c1[nH]c2ncccc2c1-c1nccc(N[C@](C)(CC)C(=O)NCC(F)(F)F)n1` [Compound 1-a, (2R)-2-[[2-(2-deuterio-1H-pyrrolo[2,3-b]pyridin-3-yl)pyrimidin-4-yl]amino]-2-methyl-N-(2.2.2-trifluoroethyl)butanamide], the new metabolites observed entry is given as “no new metabolites were observed”.
